IC50 data for 27 compounds are collected here from patent US7745450B2, “Pyrazolo[4,3-d]pyrimidines, processes for their preparation and methods for therapy” (Institute of Experimental Botany, priority 2002, dated 2010).

The target in test [1] is cdk1/cyclin B (CDC2) (Homo sapiens, UniProt P06493). In words: CDK inhibition assay, cdk1/cyclin B (CDC2) kinase, histone phosphorylation. It is filed as biochemical. As for the experimental part: Selected compounds were tested for cdk1/cyclin B and cdk2/cyclin E inhibitory activity to determine the basic relationships between their interaction energy of docked complex and the inhibitory activity. Cdk2/cyclin E complex was produced in SIP insect cells co-infected with appropriate baculoviral construct. The cells were harvested 70 hours post infection in lysis buffer (50 mM Tris 7.4 pH, 150 mM NaCl, 5 mM EDTA, 20 mM NaF, 1% Tween 20, protease inhibitors) for 30 min on ice and the soluble fraction was recovered by centrifugation at 14.000 g for 10 min. The protein extract was stored at −80° C. until use. The final point test system for kinase activity measurement was used to carry out experiments on the kinetics under linear conditions. The assay mixture contained 1 mg/ml histone (Sigma Type III-S), 15 μM ATP, 0.2 μCi [γ-^32P] ATP and tested compound in a final volume of 20 μl, all in reaction buffer: 50 mM Hepes 7.4 pH, 10 mM MgCl2, 5 mM EGTA, 10 mM 2-glycerolphosphate, 1 mM NaF, 1 mM DTT and protease inhibitors. […] The measurement of kinase inhibition employed the digital imaging analyzer BAS 1800. The kinase activity was expressed as a percentage of maximum activity and the IC50 value was determined by graphic analysis. The kinase activity is expressed as a percentage of maximum activity, the apparent inhibition constants are determined by graphic analysis from dose-response curves presented on FIG. 1.

The target in test [2] is IκB-α kinase. Kind of test: IκB-α kinase inhibition, in vitro kinase assay. The class given is biochemical.

Sequence of cdk1/cyclin B (CDC2) (P06493 whole entry, species assumed): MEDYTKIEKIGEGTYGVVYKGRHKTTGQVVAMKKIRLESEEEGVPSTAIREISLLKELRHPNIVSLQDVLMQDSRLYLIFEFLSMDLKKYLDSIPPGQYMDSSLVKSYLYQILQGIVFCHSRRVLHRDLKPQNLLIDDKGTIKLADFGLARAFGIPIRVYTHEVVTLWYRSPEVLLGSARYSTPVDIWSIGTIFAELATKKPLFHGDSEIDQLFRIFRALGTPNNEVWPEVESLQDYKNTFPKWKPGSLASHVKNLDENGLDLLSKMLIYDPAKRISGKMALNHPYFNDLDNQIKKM
Sequence of cdk1/cyclin B (CDC2) (P14635 whole entry partner, species assumed): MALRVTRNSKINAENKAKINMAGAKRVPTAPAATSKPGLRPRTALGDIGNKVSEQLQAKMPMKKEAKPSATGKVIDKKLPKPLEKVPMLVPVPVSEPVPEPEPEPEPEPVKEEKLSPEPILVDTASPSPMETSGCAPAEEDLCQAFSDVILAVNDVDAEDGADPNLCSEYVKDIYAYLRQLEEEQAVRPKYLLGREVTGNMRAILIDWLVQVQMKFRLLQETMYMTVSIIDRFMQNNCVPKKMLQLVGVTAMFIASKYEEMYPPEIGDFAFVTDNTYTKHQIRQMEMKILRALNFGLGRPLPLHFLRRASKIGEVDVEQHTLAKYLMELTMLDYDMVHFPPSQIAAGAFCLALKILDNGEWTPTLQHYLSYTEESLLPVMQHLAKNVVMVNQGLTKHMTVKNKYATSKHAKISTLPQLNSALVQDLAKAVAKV

For `CC(C)c1n[nH]c2c(NCc3ccccc3)nc(N(CCO)CCO)nc12`, the IC50 amounted to 400 nM in test [1] and 1100 nM in test [2].
The corresponding values for `Cc1n[nH]c2c(NC(CO)c3ccccc3)nc(NCCO)nc12` (racemic) are 200 nM and 400 nM.
As to `Cc1n[nH]c2c(Nc3ccc(N)c(Cl)c3)nc(NCCO)nc12`, the IC50 in test [1] came out at 12 nM; in test [2], 29 nM.
The corresponding values for `Cc1n[nH]c2c(Nc3ccc(C(=O)O)c(Cl)c3)nc(NCCO)nc12` are 7 nM and 14 nM.
The matching figures for `Cc1n[nH]c2c(Nc3ccc(Cl)cc3)nc(NCCO)nc12`: 9 nM and 19 nM.
For the compound `CC(=O)c1cccc(CNc2nc(N[C@@H](CO)C(C)C)nc3c(C(C)C)n[nH]c23)c1`, the IC50 in test [1] came out at 1 nM; in test [2], 5 nM.
The corresponding values for `CC[C@H](CO)Nc1nc(N(C)Cc2ccc(O)c(O)c2)c2[nH]nc(C(C)C)c2n1` are 230 nM and 510 nM.
The matching figures for `COc1cccc(CNc2nc(NCCO)nc3c(C)n[nH]c23)c1O`: 10 nM and 40 nM.
The matching figures for `COc1ccc(CNc2nc(N[C@@H](CO)C(C)C)nc3c(C(C)C)n[nH]c23)c(O)c1O`: 0.4 nM and 1.2 nM.
Turning to `Cc1n[nH]c2c(Nc3ccc(Cl)c(N)c3)nc(NCCO)nc12`, the IC50 amounted to 9 nM in test [1] and 23 nM in test [2].
The corresponding values for `Cc1n[nH]c2c(NCc3ccccc3)nc(NCCCO)nc12` are 700 nM and 1800 nM.
For the compound `Cc1n[nH]c2c(NCc3ccc(Cl)c(O)c3O)nc(NCCO)nc12`, the results for the IC50 in test [1] and in test [2] were 9 nM and 21 nM, respectively.
Regarding `CC[C@H](CO)Nc1nc(NCc2ccccc2O)c2[nH]nc(C(C)C)c2n1`, the IC50 in test [1] worked out at 8 nM; in test [2] it was 12 nM.
The corresponding values for `Cc1n[nH]c2c(Nc3ccccc3)nc(NCCO)nc12` [2-hydroxyethylamino; anilino; methyl] are 90 nM and 210 nM.
The corresponding values for `Cc1n[nH]c2c(NCc3ccc(O)c(O)c3)nc(NCCO)nc12` are 5000 nM and 11000 nM.
The matching figures for `CC[C@H](CO)Nc1nc(NCc2cc(O)c(OC)cc2O)c2[nH]nc(C(C)C)c2n1`: 2 nM and 6 nM.
On to `COc1cc(O)c(CNc2nc(N[C@@H](CO)C(C)C)nc3c(C(C)C)n[nH]c23)c(O)c1`, for which the figures for the IC50 in test [1] and in test [2] were 0.7 nM and 1.6 nM, respectively.
The matching figures for `CC[C@H](CO)Nc1nc(NCc2ccc(O)c(O)c2)c2[nH]nc(C(C)C)c2n1`: 500 nM and 1100 nM.
The corresponding values for `COc1cc(O)c(CNc2nc(NCCO)nc3c(C)n[nH]c23)cc1O` are 7 nM and 15 nM.
For the compound `CC(=O)Oc1cccc(CNc2nc(NCCO)nc3c(C)n[nH]c23)c1`, the IC50 was determined as 400 nM in test [1] and 1700 nM in test [2].
In the case of `Cc1n[nH]c2c(NCc3ccc(Cl)c(N)c3N)nc(NCCO)nc12`, the figures for the IC50 in test [1] and in test [2] were 600 nM and 700 nM, respectively.
`Cc1n[nH]c2c(N(C)Cc3ccc(O)c(O)c3)nc(NCCO)nc12`: the IC50 was 700 nM in test [1] and 900 nM in test [2].
The corresponding values for `CC(=O)c1ccccc1CNc1nc(NCCO)nc2c(C)n[nH]c12` are 10 nM and 50 nM.
On to `CC[C@H](CO)Nc1nc(NCc2ccccc2C(C)=O)c2[nH]nc(C(C)C)c2n1`, for which the IC50 worked out at 5 nM in test [1] and 15 nM in test [2].
Take `CC(C)c1n[nH]c2c(NCc3ccccc3O)nc(N[C@@H](CO)C(C)C)nc12`: the IC50 amounted to 0.5 nM in test [1] and 1 nM in test [2].
The matching figures for `CC[C@H](CO)Nc1nc(NCc2c(O)cc(OC)cc2O)c2[nH]nc(C(C)C)c2n1`: 0.8 nM and 3 nM.
The corresponding values for `Cc1n[nH]c2c(NCc3cccc(O)c3)nc(NCCO)nc12` are 80 nM and 240 nM.

Broadly, the IC50 is the concentration that gives 50% inhibition. High values mean lower potency, low ones higher potency.
